Assay results from ChEMBL document CHEMBL1201862, “PubChem BioAssay data set” (2004).
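In this assay, cells in 96-well plates receive the compound at five concentrations for 48 hours. Endpoints are linearly interpolated between the surrounding concentrations. GI50 = concentration required for 50% inhibition of growth.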 Activity calls are given as the source filed them. No stated cut-off is given here; in the data, active = GI50 up to about 1.1 µM and inactive = higher.

Tests used:
Experiment in all cases: NCI tumour cell line growth inhibition, 48 h
[1] = test system: SF-539
[2] = test system: SF-268
[3] = test system: NCI-H23
[4] = test system: SK-MEL-5
[5] = test system: SNB-19
[6] = test system: BT-549
[7] = test system: UACC-257
[8] = test system: HCT-15
[9] = test system: HL-60
[10] = test system: TK-10
[11] = test system: NCI-H226
[12] = test system: CCRF-CEM
[13] = test system: UACC-62
[14] = test system: MOLT-4
[15] = test system: T47D
[16] = test system: SF-295
[17] = test system: SK-OV-3
[18] = test system: HOP-62
[19] = test system: OVCAR-8
[20] = test system: HT-29

| Structure (SMILES) | GI50 [1] | GI50 [2] | GI50 [3] | GI50 [4] | GI50 [5] | GI50 [6] | GI50 [7] | GI50 [8] [µM] | GI50 [9] | GI50 [10] | GI50 [11] | GI50 [12] | GI50 [13] | GI50 [14] | GI50 [15] | GI50 [16] | GI50 [17] | GI50 [18] | GI50 [19] | GI50 [20] |
| --- | --- | --- | --- | --- | --- | --- | --- | --- | --- | --- | --- | --- | --- | --- | --- | --- | --- | --- | --- | --- |
| Cn1cnc([N+](=O)[O-])c1Sc1nc(N)nc2c1ncn2[C@H]1C[C@H](O)[C@@H](CO)O1 | 10.2 µM (inactive) | 1.77 µM (inactive) | 3.91 µM (inactive) | 4.08 µM (inactive) | 62.1 µM (inactive) | 5.62 µM (inactive) | 8.32 µM (inactive) | 4.17 | 4.86 µM (inactive) | 3.98 µM (inactive) | 7.82 µM (inactive) | 2.88 µM (inactive) | 1.51 µM (inactive) | 2.43 µM (inactive) | 7.52 µM (inactive) | 3.11 µM (inactive) | 0.463 µM (active) | 0.971 µM (active) | 2.51 µM (inactive) | 3.54 µM (inactive) |
| Cc1ccc(C(=N)Nc2ccccc2)cc1 | > 100 µM (inactive) | > 100 µM (inactive) | > 100 µM (inactive) | 89.7 µM (inactive) | > 100 µM (inactive) | > 100 µM (inactive) | 38 µM (inactive) | > 100 | > 100 µM (inactive) | > 100 µM (inactive) | > 100 µM (inactive) | 52.2 µM (inactive) | > 100 µM (inactive) | > 100 µM (inactive) | > 100 µM (inactive) | > 100 µM (inactive) | > 100 µM (inactive) | > 100 µM (inactive) | > 100 µM (inactive) | 69.7 µM (inactive) |
| O=S(=O)(O)c1cc(S(=O)(=O)O)c2c(/N=N/c3ccc(/N=N/c4ccccc4)cc3)c(O)ccc2c1 | > 100 µM (inactive) | > 100 µM (inactive) | > 100 µM (inactive) | > 100 µM (inactive) | > 100 µM (inactive) | > 100 µM (inactive) | > 100 µM (inactive) | > 100 | > 100 µM (inactive) | > 100 µM (inactive) | > 100 µM (inactive) | > 100 µM (inactive) | > 100 µM (inactive) | > 100 µM (inactive) | > 100 µM (inactive) | > 100 µM (inactive) | > 100 µM (inactive) | > 100 µM (inactive) | > 100 µM (inactive) | > 100 µM (inactive) |
| O=C1c2cc([N+](=O)[O-])cc3cc([N+](=O)[O-])cc(c23)C(=O)N1CCCNCCNCCCN1C(=O)c2cc([N+](=O)[O-])cc3cc([N+](=O)[O-])cc(c23)C1=O | 0.0533 µM (active) | 0.0222 µM (active) | 0.0931 µM (active) | 0.287 µM (active) | 0.326 µM (active) | 1.7 µM (inactive) | 0.49 µM (active) | 0.117 | 0.0166 µM (active) | 1.19 µM (inactive) | 0.0641 µM (active) | < 0.015 µM (active) | 0.302 µM (active) | < 0.01 µM (active) | 0.587 µM (active) | 0.0462 µM (active) | 1.79 µM (inactive) | 0.185 µM (active) | 0.0841 µM (active) | 0.0201 µM (active) |
| O=C1c2cccc([N+](=O)[O-])c2C(=O)N1Cc1ccccc1 | > 100 µM (inactive) | > 100 µM (inactive) | > 100 µM (inactive) | > 100 µM (inactive) | > 100 µM (inactive) | > 100 µM (inactive) | > 100 µM (inactive) | > 100 | > 100 µM (inactive) | > 100 µM (inactive) | > 100 µM (inactive) | > 100 µM (inactive) | > 100 µM (inactive) | > 100 µM (inactive) | > 100 µM (inactive) | > 100 µM (inactive) | > 100 µM (inactive) | > 100 µM (inactive) | > 100 µM (inactive) | > 100 µM (inactive) |
| N=C(N)NCC1CCCCCCN1 (stereo not given) | > 100 µM (inactive) | > 100 µM (inactive) | > 100 µM (inactive) | > 100 µM (inactive) | > 100 µM (inactive) | > 100 µM (inactive) | > 100 µM (inactive) | > 100 | > 100 µM (inactive) | > 100 µM (inactive) | > 100 µM (inactive) | > 100 µM (inactive) | > 100 µM (inactive) | > 100 µM (inactive) | > 100 µM (inactive) | > 100 µM (inactive) | > 100 µM (inactive) | > 100 µM (inactive) | > 100 µM (inactive) | > 100 µM (inactive) |
| CCCCCCCCCCCC[S+](C)C | 6.24 µM (inactive) | 6.68 µM (inactive) | 4.48 µM (inactive) | 3.17 µM (inactive) | 6.59 µM (inactive) | 2.19 µM (inactive) | 4.18 µM (inactive) | 18.5 | 3.01 µM (inactive) | 3.15 µM (inactive) | 1.77 µM (inactive) | 2.04 µM (inactive) | 6.4 µM (inactive) | 4.94 µM (inactive) | 0.516 µM (active) | 5.87 µM (inactive) | 8.49 µM (inactive) | 0.665 µM (active) | 4.67 µM (inactive) | 3.41 µM (inactive) |
| CC1(O)CC(=O)c2c(cc3ccc(-c4c5c(c(O)c6c(O)cccc46)C(=O)CC(C)(O)C5)c(O)c3c2O)C1 (stereo not given) | 0.174 µM (active) | 0.194 µM (active) | 0.0574 µM (active) | 0.187 µM (active) | 0.18 µM (active) | 0.347 µM (active) | 0.324 µM (active) | 0.09 | 0.16 µM (active) | 0.767 µM (active) | 0.448 µM (active) | 0.38 µM (active) | 1.46 µM (inactive) | 0.422 µM (active) | 0.562 µM (active) | 0.179 µM (active) | 2.01 µM (inactive) | 0.296 µM (active) | 0.332 µM (active) | 0.409 µM (active) |
| O=S(=O)(O)c1ccc(/N=N/c2c(O)ccc3ccccc23)cc1 | > 100 µM (inactive) | > 100 µM (inactive) | > 100 µM (inactive) | > 100 µM (inactive) | > 100 µM (inactive) | > 100 µM (inactive) | > 100 µM (inactive) | > 100 | > 100 µM (inactive) | > 100 µM (inactive) | 98.2 µM (inactive) | > 100 µM (inactive) | > 100 µM (inactive) | > 100 µM (inactive) | > 100 µM (inactive) | > 100 µM (inactive) | > 100 µM (inactive) | > 100 µM (inactive) | > 100 µM (inactive) | > 100 µM (inactive) |
| CCc1nc(N)nc(N)c1-c1ccc(Cl)c(/N=N/N(C)C)c1 | 23.1 µM (inactive) | 49.2 µM (inactive) | 27.4 µM (inactive) | 20.7 µM (inactive) | 44.4 µM (inactive) | 30.1 µM (inactive) | 29.4 µM (inactive) | 17.1 | 20.8 µM (inactive) | > 100 µM (inactive) | 59.6 µM (inactive) | 27 µM (inactive) | 24.9 µM (inactive) | 26.5 µM (inactive) | 39.7 µM (inactive) | 26.5 µM (inactive) | > 89.3 µM (inactive) | 23.2 µM (inactive) | 40.5 µM (inactive) | 18.7 µM (inactive) |
| CCCC(CCC)C(=O)O [VALPROIC ACID] | 15200 µM (inactive) | 2140 µM (inactive) | > 100 µM (inactive) | 2740 µM (inactive) | > 100 µM (inactive) | 12200 µM (inactive) | 4530 µM (inactive) | 8090 | 10300 µM (inactive) | 8240 µM (inactive) | > 100 µM (inactive) | 14800 µM (inactive) | 8810 µM (inactive) | 11200 µM (inactive) | 7520 µM (inactive) | 7760 µM (inactive) | > 100 µM (inactive) | > 100 µM (inactive) | 3920 µM (inactive) | 3010 µM (inactive) |
